In patent US20140088069A1, “NOVEL ANTIBACTERIAL COMBINATION THERAPY” (priority 2011, published 2014):
Read-outs that look alike come from different tables or passages of the source.

Columns and labels:
Assay type in all cases: cell-based, Staphylococcus aureus
MRSA = assay: Analogues in combination with cefuroxime against MRSA (FIC index)
Experimental: A series of analogues were synthesized (as shown in Table 5) in which the thienopyridine ring was removed.
These were tested in combination with cefuroxime against MRSA and results are shown below (Table 6).

CA-MRSA USA300 = assay: Checkerboard (FIC) analysis against CA-MRSA USA300; conditions: for MIC: Staphylococcus aureus
Experimental: Here a matrix of drug concentrations were tested in combinations at the concentrations shown (μg/mL). Greyscale indicates growth—darker is more growth, lighter is less growth. FIC index is a measure of synergy and is calculated as follows: FIC index=FIC (cefuroxime)+FIC (drug compound).
The combination of ticlopidine and cefuroxime was further tested as above against a variety of S. aureus strains as shown in Table 1 below.
FIC index=FIC (β-lactam)+FTC (ticlopidine). […]

[1] = test system: S. aureus (Newman strain); assay: Checkerboard (FIC) analysis against S. aureus Newman
HA-MRSA USA600 = assay: Checkerboard (FIC) analysis, HA-MRSA USA600
HA-MRSA USA500 = assay: Checkerboard (FIC) analysis, HA-MRSA USA500
CA-MRSA USA400/MW2 = assay: Checkerboard (FIC) analysis, CA-MRSA USA400/MW2
SA178R1 = assay: Checkerboard (FIC) analysis, SA178R1
HA-MRSA USA200/EMRSA16 = assay: Checkerboard (FIC) analysis, HA-MRSA USA200/EMRSA16
HA-MRSA [2] = assay: Checkerboard (FIC) analysis, HA-MRSA (Table 1 r10)
HA-MRSA EMRSA15 = assay: Checkerboard (FIC) analysis, HA-MRSA EMRSA15
RN4220 = assay: Checkerboard (FIC) analysis, RN4220; conditions: in the presence of ticlopidine
Experimental: (§1) Here a matrix of drug concentrations were tested in combinations at the concentrations shown (μg/mL). […] FIC index is a measure of synergy and is calculated as follows: FIC index=FIC (cefuroxime)+FIC (drug compound).

HA-MRSA [3] = assay: Checkerboard (FIC) analysis, HA-MRSA (Table 1 r13)
Experimental: as §1

HA-MRSA USA100/800/NY = assay: Checkerboard (FIC) analysis, HA-MRSA USA100/800/NY
HA-MRSA [4] = assay: Checkerboard (FIC) analysis, HA-MRSA (Table 1 r16)
[5] = novel analogue in combination with cefuroxime, MRSA (Table 6)
[6] = compound in combination with cefuroxime, MRSA (Table 5)
[7] = Staphylococcus aureus, cefuroxime alone, read-out: MIC cefuroxime

`Clc1ccc2c(c1)CCN(Cc1ccccc1Cl)C2` [Compound 1-novel, 6-Chloro-2-(2-chloro-benzyl)-1,2,3,4-tetrahydro-isoquinoline] was tested, and the “FIC index” value (MRSA; [5]) was “≦2”.
With `FC(F)(F)c1ccccc1CN1CCc2ccccc2C1` [Compound 17, 2-(2-Trifluoromethyl-benzyl)-1,2,3,4-tetrahydro-isoquinoline] the “FIC index” value (MRSA; [6]) was “≦0.094”.
With `O=C(O)C(c1ccccc1Cl)N1CCc2sccc2C1` (stereo not drawn) [Compound 20] the “FIC index” value (MRSA; [6]) was “≦0.75”.
In the case of `c1ccc2c(c1)CCN(Cc1ccc3ccccc3c1)C2` [Compound 3-novel, 2-Naphthalen-2-ylmethyl-1,2,3,4-tetrahydro-isoquinoline], the “FIC index” value (MRSA; [5]) is reported as “≦0.312”.
For `c1ccc(CN2CCc3ccccc3C2)cc1` [Compound 6, 2-Benzyl-1,2,3,4-tetrahydro-isoquinoline], the “FIC index” value (MRSA; [6]) was “≦0.625”.
In the case of `Fc1ccccc1CN1CCc2ccccc2C1` [Compound 15, 2-(2-Fluoro-benzyl)-1,2,3,4-tetrahydro-isoquinoline], the “FIC index” value (MRSA; [6]) is reported as “≦0.187”.
`COC(=O)[C@H](c1ccccc1Cl)N1CCc2sccc2C1` [Compound 19, (+)-(S)-methyl 2-(2-chlorophenyl)-2-(6,7-dihydrothieno[3,2-c]pyridin-5(4H)-yl)acetate] was tested, and the MIC (CA-MRSA USA300; thienopyridine alone, CA-MRSA USA300 (Table 4), read-out: MIC thienopyridine) was > 128 µg/mL, the FIC thienopyridine (CA-MRSA USA300; in the presence of cefuroxime, CA-MRSA USA300 (Table 4)) was 0.13 and the “FIC index” value (CA-MRSA USA300; thienopyridine in combination with cefuroxime, CA-MRSA USA300 (Table 4), listed as Clopidogrel) was “≦0.20”. The “FIC index” value (CA-MRSA USA300; thienopyridine in combination with cefuroxime, CA-MRSA USA300 (Table 4), listed as clopidogrel) was ≤ 0.20 and the “FIC index” value (MRSA; [6]) was “≦0.187”.
In the case of `Oc1ccc2c(c1)CN(Cc1ccccc1Cl)CC2` [Compound 2-novel, 2-(2-Chloro-benzyl)-1,2,3,4-tetrahydro-isoquinolin-7-ol], the “FIC index” value (MRSA; [5]) is reported as “≦2”.
In the case of `Clc1ccccc1CN1CCC2CCCCC2C1` (stereo not drawn) [Compound 13, 2-(2-Chloro-benzyl)-decahydro-isoquinoline], the “FIC index” value (MRSA; [6]) is reported as “≦2”.
In the case of `O=C(O)C(c1ccccc1Cl)N1CCc2ccccc2C1` (stereo not drawn) [Compound 4-novel, (2-Chloro-phenyl)-(3,4-dihydro-1H-isoquinolin-2-yl)-acetic acid], the “FIC index” value (MRSA; [5]) is reported as “≦2”.
For `COC(=O)C(c1ccccc1C(F)(F)F)N1CCc2ccccc2C1` (stereo not drawn) [Compound 21], the “FIC index” value (MRSA; [6]) was “≦0.125”.
`Clc1cccc(CN2CCc3ccccc3C2)c1` [Compound 4, 2-(3-Chloro-benzyl)-1,2,3,4-tetrahydro-isoquinoline] was tested, and the “FIC index” value (MRSA; [6]) was “≦2”.
`Clc1ccccc1C[n+]1ccc2ccccc2c1` [Compound 8, 2-(2-Chloro-benzyl)-isoquinolinium] was tested, and the “FIC index” value (MRSA; [6]) was “≦2”.
In the case of `Cc1ccccc1CN1CCc2ccccc2C1` [Compound 14, 2-(2-Methyl-benzyl)-1,2,3,4-tetrahydro-isoquinoline], the “FIC index” value (MRSA; [6]) is reported as “≦0.125”.
With `O=[N+]([O-])c1ccccc1CN1CCc2ccccc2C1` [Compound 16, 2-(2-Nitro-benzyl)-1,2,3,4-tetrahydro-isoquinoline] the “FIC index” value (MRSA; [6]) was “≦0.187”.
In the case of `Clc1ccc(CN2CCc3ccccc3C2)cc1` [Compound 5, 2-(4-Chloro-benzyl)-1,2,3,4-tetrahydro-isoquinoline], the “FIC index” value (MRSA; [6]) is reported as “≦2”.
With `NC(=O)C(c1ccccc1C(F)(F)F)N1CCc2ccccc2C1` (stereo not drawn) [Compound 22] the “FIC index” value (MRSA; [6]) was “≦1”.
With `Clc1ccccc1CN1CCCCC1` [Compound 12, 1-(2-Chloro-benzyl)-piperidine] the “FIC index” value (MRSA; [6]) was “≦2”.
`CCN1CCN(Cc2ccccc2Cl)CC1` [Compound 10, 1-(2-Chloro-benzyl)-4-ethyl-piperazine] was tested, and the “FIC index” value (MRSA; [6]) was “≦2”.
For `CO/N=C(\C(=O)N[C@@H]1C(=O)N2C(C(=O)O)=C(COC(N)=O)CS[C@H]12)c1ccco1` [Cefuroxime], the FIC cefuroxime ([1]; Newman, in the presence of ticlopidine) was 0.125, the MIC ([1]; Staphylococcus aureus, Newman, cefuroxime alone, read-out: MIC cefuroxime) was 2 µg/mL and the FIC index ([1]; antibiotic in combination with ticlopidine, S. aureus (Newman strain)) was “≦0.25”. For the same compound, the MIC (HA-MRSA USA600; [7]) was ≥ 1020 µg/mL, the FIC cefuroxime (HA-MRSA USA600; in the presence of ticlopidine) was 0.008 and the MIC (HA-MRSA USA500; [7]) was 32 µg/mL. The FIC cefuroxime (HA-MRSA USA500; in the presence of ticlopidine) was 1, the FIC cefuroxime (CA-MRSA USA300; CA-MRSA USA300 (Table 1), in the presence of ticlopidine) was 0.032 and the MIC (CA-MRSA USA300; CA-MRSA USA300 (Table 1), cefuroxime alone, read-out: MIC cefuroxime) was 512 µg/mL. For the same compound, the MIC (CA-MRSA USA300; cefuroxime alone, CA-MRSA USA300 (Table 4), read-out: MIC Cefuroxime) was 256 µg/mL, the FIC index (CA-MRSA USA300; antibiotic in combination with ticlopidine, CA-MRSA USA 300, FIC (β-lactam)+FIC (ticlopidine)) was “≦0.13” and the “FIC cefuroxime” value (CA-MRSA USA300; in the presence of clopidogrel, CA-MRSA USA300 (Table 4)) was 0.063. The “FIC cefuroxime” value (CA-MRSA USA300; in the presence of prasugrel, CA-MRSA USA300 (Table 4)) was 0.25, the “FIC cefuroxime” value (CA-MRSA USA300; in the presence of ticlopidine, CA-MRSA USA300 (Table 4)) was 0.03 and the MIC (CA-MRSA USA400/MW2; [7]) was 256 µg/mL. For the same compound, the FIC cefuroxime (CA-MRSA USA400/MW2; in the presence of ticlopidine) was 0.063, the MIC (SA178R1; [7]) was 0.5 µg/mL and the FIC cefuroxime (SA178R1; in the presence of ticlopidine) was 1. It also gave an MIC (HA-MRSA USA200/EMRSA16; [7]) of 1020 µg/mL, an FIC cefuroxime (HA-MRSA USA200/EMRSA16; in the presence of ticlopidine) of 0.032 and an FIC cefuroxime (HA-MRSA [2]; HA-MRSA (Table 1 r10), in the presence of ticlopidine) of 0.250. The MIC (HA-MRSA [2]; Staphylococcus aureus, HA-MRSA (Table 1 r10, no further strain name), cefuroxime alone, read-out: MIC cefuroxime) was > 2050 µg/mL, the MIC (HA-MRSA EMRSA15; [7]) was 512 µg/mL and the FIC cefuroxime (HA-MRSA EMRSA15; in the presence of ticlopidine) was 0.063. For the same compound, the FIC cefuroxime (RN4220) was 1, the FIC cefuroxime (HA-MRSA [3]; HA-MRSA (Table 1 r13), in the presence of ticlopidine) was 0.250 and the MIC (HA-MRSA [3]; Staphylococcus aureus, HA-MRSA (Table 1 r13, no further strain name), cefuroxime alone, read-out: MIC cefuroxime) was > 2050 µg/mL. It also gave an MIC (HA-MRSA USA100/800/NY; [7]) of 1020 µg/mL, an FIC cefuroxime (HA-MRSA USA100/800/NY; in the presence of ticlopidine) of 0.125 and an FIC cefuroxime (HA-MRSA [4]; HA-MRSA (Table 1 r16), in the presence of ticlopidine) of 0.125. The MIC (HA-MRSA [4]; Staphylococcus aureus, HA-MRSA (Table 1 r16, no further strain name), cefuroxime alone, read-out: MIC cefuroxime) was 2050 µg/mL.
In the case of `COC(=O)C(c1ccccc1Cl)N1CCc2ccccc2C1` (stereo not drawn) [Compound 18, (2-Chloro-phenyl)-(3,4-dihydro-1H-isoquinolin-2-yl)-acetic acid methyl ester], the “FIC index” value (MRSA; [6]) is reported as “≦0.187”.
With `Clc1ccccc1CN1CCCC1` [Compound 11, 1-(2-Chloro-benzyl)-pyrrolidine] the “FIC index” value (MRSA; [6]) was “≦2”.
`c1ccc2c(c1)CCN(Cc1ccncc1)C2` [Compound 7, 2-Pyridin-4-ylmethyl-1,2,3,4-tetrahydro-isoquinoline] was tested, and the “FIC index” value (MRSA; [6]) was “≦2”.
